From patent US20240009174A1, “METHODS FOR DISRUPTING MITOCHONDRIAL UNFOLDED PROTEIN RESPONSE” (Health Research, Inc., priority 2020, published 2024)

System: c-Myc, EZH2, AR, PSA
Experiment: c-Myc, EZH2, AR and PSA protein expression in PCa cells
Assay type: cell-based
Settings: LNCaP, 24 hours
Method: FIG. 8. Pharmacological inhibition of HSP60-ClpP inhibit oncogenic signaling and PCa tumor growth in vivo. (A) LNCaP, PC-3 and 22RV1 cells were treated with DCEM1 and analyzed for c-Myc and EZH2 protein expression after 24 hours of treatment. (B) LNCaP, 22RV1 and VCaP cells were treated with DCEM1 and analyzed for AR and PSA protein expression after 24 hours of treatment. (C-D) 22RV1 cells (1×10^6 cells) were mixed with matrigel (50:50 v/v) and injected into each flank of SCID mice and treated with DCEM1 (60 mg/kg bw) through IP route twice weekly and tumors were harvested, photographed (C) and weighed (D) at 30 days. (E) DEVDase activity were analyzed in 22RV1 xenograft tumor tissue following DCEM1 treatment and represented as fold change compared to control. (F) 22RV1 xenograft tissue were sectioned and expression of ki67, c-Myc and EZH2 proteins were analyzed by Immunohistochemistry as described in material and methods. […] (I) DEVDase activity were analyzed in PC-3 xenograft tumor tissue following DCEM1 treatment and represented as fold change compared to control. […] All animals were sacrificed at 16 weeks of age and prostate tissue and tumors were harvested, whole cell lysate were prepared and analyzed for HSP60 and ClpP expression (N); c-Myc and EZH2 expression (0) and SYP and CK 8/18 expression (P) by immunoblotting. […]

With CCOc1cc(CNCc2nc3ccccc3[nH]2)ccc1OCc1cccs1 [DCEM1] the PSA levels (22RV1 and VCaP cells) was “Decrease in PSA levels” and the “c-Myc, EZH2, and AR signaling in PCa cells” value (PC-3, 22RV1, VCaP cells) was “downregulates c-Myc, EZH2, and AR signaling”.
